≈ marks a conversion by molar mass, not a printed value. Like-named read-outs stand apart in the source and are kept apart here.
Columns and labels:
[1] = Saturated solubility of Allo in receptor media; type: physicochemical; conditions: aqueous with cosolvent or surfactant or cyclodextrin, thermodynamic from solid, 32° C., n=3, read-out: Solubility of Allo in receptor medium
Protocol: To select a receptor medium placed in the receptor compartment of the Franz chamber, the saturated solubilities of Allo in various media were determined. PBS at pH 7.4 has been commonly used to mimic the physiological condition. […] An excessive amount of Allo was added to 1 ml of the following media: (1) 10% (w/v) 2-hydroxypropyl-β-cyclodextrin (HβCD), (2) 40% (v/v) isopropyl alcohol (IPA), (3) 30% (v/v) CREMOPHOR EL®, and (4) 20% (v/v) IPA and 25% (v/v) CREMOPHOR EL®. The solutions were kept under constant magnetic stirring at 600 rpm for 24 h and placed in an incubator at 32° C. After 24 h, the excessive amount of Allo was filtered through a 0.2 μm syringe membrane and the filtered solution was injected into the HPLC for analysis.

[2] = system: TR 146 (human buccal) cell line; experiment: In vitro cell viability (resazurin assay) after treatment of Allo, TR 146; type: cell-based; conditions: TR 146, Allo 0.001-10 μM, 72 h
Protocol: (§1) Cell viability was evaluated in human skin (HaCaT)cell line by performing a resazurin assay after the treatment of Allo. Resazurin is a cell permeable redox indicator, and viable cells with active metabolism can reduce resazurin into resorufin, which is fluorescent (Riss et al., Cell Viability Assays, in Assay Guidance Manual, 2016). The HaCaT cells were grown in optimized Dubelco's Modified Eagle's medium (DMEM) (containing 2 mM of L-glutamine, 2 mM of sodium pyruvate, 4500 mg/L of glucose, and 1500 mg/L of sodium bicarbonate) supplemented with 10% fetal bovine serum (FBS). The TR 146 cells were grown in Ham's F12 medium supplemented with 10% FBS, 1% penicillin-streptomycin, and 0.2% L-Glutamine The RPMI 2650 cells were grown in Eagle's Minimum Essential medium (EMEM) supplemented with 10% FBS, 1% penicillin-streptomycin, and 0.2% amphotericin […]. Cells were plated in a 96-well plate at a density of 5,000 cells per each well (100 μl) and incubated at 37° C. and 5% CO2 for 48 h. Allo was prepared in cell culture media with the addition of 1% (v/v) ethanol to aid Allo solubility. The final concentration range of Allo treated to the cells was 0.001-10 μM. […] The cell viability was measured using Synergy H1 Multi-Mode Reader (BioTek Instruments Inc., Winooski, Vt.) at the excitation wavelength of 544 nm and emission wavelength of 590 nm.

[3] = system: RPMI 2650 (human nasal) cell line; experiment: In vitro cell viability (resazurin assay) after treatment of Allo, RPMI 2650; type: cell-based; conditions: RPMI 2650, Allo 0.001-10 μM, 72 h
Protocol: as §1

[4] = Saturated solubility of Allo in oils; type: physicochemical; conditions: oil or lipid, thermodynamic from solid, room temperature, mean ± SD, n=3
Protocol: The solubility of Allo was determined in CAPMUL® MCM EP/NF (monodiglyceride of medium chain fatty acids, commercially available from Abitec Corporation (Columbus, Ohio), CAS Number 91744-32-0, or 26402-22-2, and 26402-26-6), isopropyl myristate, and oleic acid, by adding an excess amount of Allo to 1 mL of each oil in a glass vial. The vial was rocked for 72 h at room temperature. The excessive amount of Allo was filtered through a syringe membrane filter (0.2 μm). The amount of Allo dissolved in each oil was determined using HPLC.
An HPLC analytical method was developed by employing the SHIMADZU LC2010A HT for in vitro and ex vivo evaluation of Allo from microemulsions (MEs). Chromatographic separation was achieved using a PHENOMENEX® KINETEX® Phenyl-hexyl 2.6 μm reverse-phase (150×4.6 mm) column. The mobile phase was a mixture of 0.1% acetic acid in water and methanol, 20:80 (v/v) and flowed at 0.4 ml/min for 15 min The injection volume was 10 μl and the UV detection wavelength was 206 nm. A standard curve was constructed at the concentration range of 7.8-1,000

[5] = system: HaCaT (human skin) cell line; experiment: In vitro cell viability (resazurin assay) after treatment of Allo, HaCaT; type: cell-based; conditions: 72 h
Protocol: as §1

Q: For CC(=O)[C@H]1CC[C@H]2[C@@H]3CC[C@H]4C[C@H](O)CC[C@]4(C)[C@H]3CC[C@]12C [Allo, 3α-hydroxy-5α-pregnan-20-one], which solubility at 24 h ([1]; PBS (pH 7.4) containing 10% (w/v) HβCD) is on record?
A: Its solubility at 24 h is 3450 ± 30 µg/mL (≈ 10.8 mM).

Q: What about the solubility at 24 h ([1]; PBS (pH 7.4) containing 20% (v/v) IPA and 25% (v/v) CREMOPHOR EL®) of the same molecule?
A: The solubility at 24 h was 3350 ± 120 µg/mL (≈ 10.5 mM).

Q: And the solubility at 24 h ([1]; PBS (pH 7.4) containing 30% (v/v) CREMOPHOR EL®)?
A: The solubility at 24 h was 1990 ± 170 µg/mL (≈ 6.25 mM).

Q: And the solubility at 24 h ([1]; PBS (pH 7.4) containing 40% (v/v) IPA)?
A: The solubility at 24 h was 1130 ± 130 µg/mL (≈ 3.55 mM).

Q: And the Viability percent range [2]?
A: Its Viability percent range is 93.89-112.44%.

Q: What about the Viability percent range [3] of the same molecule?
A: Its Viability percent range is 107.32-113.60%.

Q: What about the solubility at 72 h ([4]; in CAPMUL® MCM) of the same molecule?
A: The solubility at 72 h was 28400 ± 1920 µg/mL (≈ 89 mM).

Q: And the solubility at 72 h ([4]; in isopropyl myristate)?
A: Its solubility at 72 h is 8880 ± 170 µg/mL (≈ 27.9 mM).

Q: What about the solubility at 72 h ([4]; in oleic acid) of the same molecule?
A: The solubility at 72 h was 17800 ± 3970 µg/mL (≈ 55.9 mM).

Q: And the Viability percent range ([5]; HaCaT, Allo 0.001-10 μM)?
A: The Viability percent range was 84.16-102.70%.

Q: And the “Viability compared to the control group” value ([5]; stated for the tested cell lines (HaCaT, TR 146, RPMI 2650), control without Allo)?
A: The value was “No significant decrease in viability”.
